“Also recorded” adds a separate entry of the source. Values belong to the compound of their own block, whether it stands above or below them.
Key:
[1] = pH stability of Glyco-BABS; assay type: physicochemical; details: 5 μM, up to 72 h, pH 2 to 10
Text: One concern with the Glyco-BABS design was the known lability of acetals under acidic conditions that has been exploited in pH-sensitive prodrugs or linkers for drug delivery.^41,42 However, we recognized that carbohydrate anomeric acetals are chemically distinct from regular acetals. Due to stabilization by the endocyclic oxygen, we expected these bis-acetals would show stability across a range of physiological pH values. We therefore assessed the stability of the bis-acetal motif toward acid and base hydrolysis (FIG. 8). To do so, we tested the pH stability of 5 μM of GlcNAc-Br-BABS 1, GlcNAc-OH-BABS 2, Glc-OH-BABS 6 and Glc-H-BABS 7 at different pH over time. We prepared solutions at various pH by mixing 0.2 M KCl+0.1 M HCl with 0.2 M KCl+0.1 M KOH. Fluorescence of EDANS and Glyco-BABS solutions (5 μM, 45 μL) at different pH was measured at different time points in Nunc 384-well plates using a SpectraMax i3× plate reader. Data (triplicates) support the highly efficient quenching and the stability of these substrates over a wide range of pH.

hOGA = biological target: T1, hOGA (Homo sapiens, UniProt O60502); experiment: Interrupted assay for determination of hemiacetal breakdown; assay type: biochemical
T1 construct: started by addition of hOGA (WT, Full-length, expressed in E. coli. as previously described); made in house; host or cells: E. coli
T1 sequence (O60502 1-916): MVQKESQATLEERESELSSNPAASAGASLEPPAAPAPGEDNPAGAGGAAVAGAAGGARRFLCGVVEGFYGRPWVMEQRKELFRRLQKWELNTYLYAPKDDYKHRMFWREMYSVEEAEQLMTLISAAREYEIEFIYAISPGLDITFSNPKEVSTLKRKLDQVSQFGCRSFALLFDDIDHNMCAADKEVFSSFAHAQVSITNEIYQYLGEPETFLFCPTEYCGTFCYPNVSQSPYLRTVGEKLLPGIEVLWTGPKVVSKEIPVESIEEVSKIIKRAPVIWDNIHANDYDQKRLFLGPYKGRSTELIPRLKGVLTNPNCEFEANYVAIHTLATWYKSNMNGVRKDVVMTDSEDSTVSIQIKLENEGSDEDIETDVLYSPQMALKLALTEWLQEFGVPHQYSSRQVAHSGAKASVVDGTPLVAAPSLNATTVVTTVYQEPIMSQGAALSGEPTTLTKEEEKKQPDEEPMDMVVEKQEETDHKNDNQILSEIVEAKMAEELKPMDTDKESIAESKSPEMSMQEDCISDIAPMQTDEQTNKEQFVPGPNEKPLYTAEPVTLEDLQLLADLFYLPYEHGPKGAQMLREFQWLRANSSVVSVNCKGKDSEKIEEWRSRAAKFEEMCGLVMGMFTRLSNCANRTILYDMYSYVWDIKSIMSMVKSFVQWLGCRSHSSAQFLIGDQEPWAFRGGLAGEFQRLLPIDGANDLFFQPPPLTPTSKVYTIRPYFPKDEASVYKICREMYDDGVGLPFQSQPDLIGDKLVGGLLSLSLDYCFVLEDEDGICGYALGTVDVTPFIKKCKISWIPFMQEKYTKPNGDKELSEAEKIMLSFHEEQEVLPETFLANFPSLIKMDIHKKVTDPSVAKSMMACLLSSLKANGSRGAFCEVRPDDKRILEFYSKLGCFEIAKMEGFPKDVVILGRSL
Procedure: For some experiments, fluorescence kinetic assays were performed using a Varian Cary Eclipse Spectrophotometer set for 335/493 nm excitation/emission wavelengths. Slits were set at 10 nm and the detector was set on Medium voltage. Enzymatic reactions with human OGA were carried out in PBS at 37° C. and were started by addition of hOGA (WT, Full-length, expressed in E. coli. as previously described) in a total volume of 160 μL (Starna sub-micro Fluorometer cuvette). For measurements of rates using different concentrations of substrates, a hOGA concentration of 100 nM was used. For hOGA titration, 25 μM of Glyco-BABS were added to various concentration of hOGA. For interrupted assay, reaction was started by addition of hOGA (680 nM final) in solutions of GlcNAc-BABS in PBS. […] For hemiacetal breakdown rate measurements, data after Thiamet-G addition was extracted and fitted using Prism software. EDANS standard curve was established using endpoint fluorescence measurements of serial dilutions of EDANS in the relevant buffer using the same instrument parameters. Inner-Filter effect measurements were carried out in cuvette by measuring fluorescence of several concentrations of EDANS in presence of various concentrations of GlcNAc-BABS. Kinetics with Glc-BABS and GBA enzymes (GBA1 and GBA3 purchased from R&D Systems), kinetics with GALC (R&D systems) and Gal-BABS, pH stability, quenching efficiency, some inner-filter effect experiments and lysates experiments were carried out using a Molecular Devices SpectraMax i3× plate reader. Emission/Excitation wavelengths were set at 350 and 490 nm respectively for EDANS/DABCYL Glyco-BABS and at 565 and 610 nm respectively for TAMRA/BHQ2 Glyco-BABS. Fluorescence measurements were performed using Costar 96-well black plates or Nunc 384-well black plates after sample preparation in 96-well mixing plates. For GBA1, the continuous assay was performed in citrate buffer (50 mM, pH 5.5) in the presence of 0.1% Triton, 1 mg/mL BSA and 0.14% taurodeoxycholate at 25° C. […]

GBA1 = biological target: T2, GBA1 (Homo sapiens, UniProt P04062); experiment: Live cell imaging of GBA1 activity in SK-N-SH cells; assay type: cell-based
T2 sequence (P04062 40-536): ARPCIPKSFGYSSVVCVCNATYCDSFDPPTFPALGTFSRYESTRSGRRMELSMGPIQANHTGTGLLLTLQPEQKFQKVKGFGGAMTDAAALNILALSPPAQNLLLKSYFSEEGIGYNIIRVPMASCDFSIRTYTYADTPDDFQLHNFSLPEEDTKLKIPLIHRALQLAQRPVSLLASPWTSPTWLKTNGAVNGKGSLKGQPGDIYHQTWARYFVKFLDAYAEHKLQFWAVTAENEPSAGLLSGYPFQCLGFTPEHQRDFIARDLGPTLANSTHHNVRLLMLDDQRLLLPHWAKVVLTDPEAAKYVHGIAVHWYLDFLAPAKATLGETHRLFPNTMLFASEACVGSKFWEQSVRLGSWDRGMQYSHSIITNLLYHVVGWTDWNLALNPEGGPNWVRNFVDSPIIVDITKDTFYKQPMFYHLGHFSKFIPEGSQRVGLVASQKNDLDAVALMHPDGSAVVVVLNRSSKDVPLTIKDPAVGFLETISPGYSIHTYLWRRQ
Procedure: SK-N-SH cells were cultured, except where indicated otherwise, in EMEM supplemented with 10% FBS and 1% penicillin-streptomycin at 37° C. and 5% CO2. The media was replaced every 3-4 days and the cells passaged after reaching 70-80% confluency, which occurred approximately every week. For imaging experiments, cells were seeded in triplicate into the central 60 wells of a sterile 96-well plate (Corning 4680) at a density of 10000 cells/well.
Fluorescence measurements in live cells was performed using a Molecular Devices ImageXpress XLS High-Content Imaging system (HCl). Live cells were plated in a 96-well or 384-well Corning plates. Cells were left to adhere and incubated at 37° C. in 5% CO2 for at least 12 h in EMEM supplemented with 10% FBS and 1% penicillin-streptomycin before any treatment. Cells were then washed with warm (37° C.) EMEM (with no phenol red and FBS). A mixture of vehicle, substrate dissolved in DMSO (0.1% final concentration of DMSO), or substrate and inhibitor mixture, were added to the imaging media (EMEM with no phenol red or FBS supplemented with DAPI) which was then added to these cells and incubated at 37° C. and 5% CO2 in the dark for the times specified (typically 2 h). […] For each well, 9 sites were imaged at predefined regions of each well and 2 to 3 channel were recorded (DAPI, FITC, TRITC). The data was analyzed using the MetaXpress software suite. by determining the Mean Integrated Intensity obtained using the TRITC channel and dividing by the number of cells (determined thanks to DAPI staining).
The Glc-H-BABS(TAMRA/BHQ2) 8 was also evaluated in the human neuronal cell culture model cells SK-N-SH. […] By integrating the fluorescence intensity from randomly selected fields, it was possible to observe a quantitative increase in fluorescence with increasing concentrations of the Glc-BABS 8. Next, it was established that there is a dose-dependent cellular fluorescence where a linear increase in fluorescence was observed that depended on the concentration of Glc-BABS 8 (FIG. 12). […]

- pH stability (increase of fluorescence) [1]: no significant increase of fluorescence
- first order rate constant (k3) for hemiacetal breakdown (hOGA; hemiacetal generated from the substrate, hOGA stopped after 1 min with Thiamet-G 100 μM): 0.044 s⁻¹
- hemiacetal breakdown, times faster than the one from GlcNAc-Br-BABS 1 (hOGA; ratio of k3): 4.5 times
SMILES: CC(=O)N[C@H]1[C@H](O[C@@H](OCCOCCn2cc(CNC(=O)c3ccc(/N=N/c4ccc(N(C)C)cc4)cc3)nn2)[C@@](C)(O)C(=O)NCCNc2cccc3c(S(=O)(=O)O)cccc23)O[C@H](CO)[C@@H](O)[C@@H]1O [Compound 2, 5-((2-((2R,3R)-3-(((2S,3R,4R,5S,6R)-3-acetamido-4,5-dihydroxy-6-(hydroxymethyl)tetrahydro-2H-pyran-2-yl)oxy)-3-(2-(2-(4-((4-((E)-(4-(dimethylamino)phenyl)diazenyl)benzamido)methyl)-1H-1,2,3-triazol-1-yl)ethoxy)ethoxy)-2-hydroxy-2-methylpropanamido)ethyl)amino)naphthalene-1-sulfonic Acid]

SMILES: COc1cc(/N=N/c2ccc([N+](=O)[O-])cc2)c(OC)cc1/N=N/c1ccc(N(C)CCCC(=O)NCc2cn(CCOCCOC(CC(=O)NCCCCCCNC(=O)c3ccc(-c4c5ccc(=[N+](C)C)cc-5oc5cc(N(C)C)ccc45)c(C(=O)[O-])c3)O[C@@H]3O[C@H](CO)[C@@H](O)[C@H](O)[C@H]3O)nn2)cc1 (stereo partly drawn) [Compound 8, 5-((6-(3-(2-(2-(4-((4-((4-((E)-(2,5-dimethoxy-4-((E)-(4-nitrophenyl)diazenyl)phenyl)diazenyl)phenyl)(methyl)amino)butanamido)methyl)-1H-1,2,3-triazol-1-yl)ethoxy)ethoxy)-3-(((2S,3R,4S,5S,6R)-3,4,5-trihydroxy-6-(hydroxymethyl)tetrahydro-2H-pyran-2-yl)oxy)propanamido)hexyl)carbamoyl)-2-(6-(dimethylamino)-3-(dimethyliminio)-3H-xanthen-9-yl)benzoate]
- processing to fluorescent product in live SK-N-SH cells (GBA1; 5 μM and varying concentrations, 1 to 2 h): processed in cells to result in the fluorescent product

SMILES: O[C@H]1[C@H](O)CNC[C@@H]1C(F)F [AT3375, (3R,4R,5S)-5-(difluoromethyl)piperidine-3,4-diol]
- effect on fluorescent signal of Glc-BABS 8 in live SK-N-SH cells (GBA1; 10 μM AT3375 with 5 μM Glc-BABS 8): significant reduction; also recorded: clear decrease of the signal
- fluorescence signal vs inhibitor concentration in live SK-N-SH cells (GBA1; varying AT3375 concentrations, 5 μM Glc-BABS 8, 2 h): decreasing fluorescence signal with increasing inhibitor concentration

From patent publication US11396522B2, “Bis-acetal-based substrates for imaging exo-glycosidase activity” (ALECTOS THERAPEUTICS INC., priority 2017, dated 2022)
